Reference: ChEMBL document CHEMBL4020737, “Synthesis and cytotoxic activity of new artemisinin hybrid molecules against human leukemia cells” (Bioorg Med Chem, 2017)
Calls of active or inactive are those of the source. The calls are words filed in the database; no cut-off is given here.

Key:
CCRF-CEM = test: Cytotoxicity against human CCRF-CEM cells assessed as reduction in cell viability after 72 hrs by resazurin reduction assay; assay type: functional, cell-based
ADR5000 cell line [1] = test: Cytotoxicity against human CEM/ADR5000 cells assessed as reduction in cell viability after 72 hrs by resazurin reduction assay; assay type: functional, cell-based; settings: ADR5000, 72 h
[2] = Resistance index, ratio of IC50 for human CEM/ADR5000 cells to IC50 for human CCRF-CEM cells; assay type: functional
ADR5000 cell line [3] = test: Cytotoxicity against human CEM/ADR5000 cells assessed as reduction in cell viability at 400 uM after 72 hrs by resazurin reduction assay; assay type: functional, cell-based

Row | Compound | IC50 (CCRF-CEM) | IC50 (ADR5000 cell line [1]) | Ratio IC50 [2] | Activity (ADR5000 cell line [3])
1 | COC(=O)CC[C@@H](C)[C@H]1CC[C@H]2[C@@H]3[C@H](OC(C)=O)C[C@@H]4C[C@@H](OC(=O)CCC(=O)O[C@@H]5O[C@@H]6O[C@@]7(C)CC[C@H]8[C@H](C)CC[C@@H]([C@H]5C)[C@@]68OO7)CC[C@]4(C)[C@H]3C[C@H](OC(C)=O)[C@]12C | 0.065 µM | 1.18 µM | 18.1 | 
2 | COC(=O)CC[C@@H](C)[C@H]1CC[C@H]2[C@@H]3[C@H](OC(C)=O)C[C@@H]4C[C@@H](OC(=O)C[C@H]5O[C@@H]6O[C@@]7(C)CC[C@H]8[C@H](C)CC[C@@H]([C@H]5C)[C@@]68OO7)CC[C@]4(C)[C@H]3C[C@H](OC(C)=O)[C@]12C | 0.028 µM | 1.29 µM | 46.1 | 
3 | C[C@H]1[C@@H](CCCO)O[C@@H]2O[C@@]3(C)CC[C@H]4[C@H](C)CC[C@@H]1[C@@]24OO3 |  |  |  | inactive
4 | CC(=O)O[C@H]1C[C@H]2[C@@H]([C@H](OC(C)=O)C[C@@H]3CC(=O)CC[C@@]32C)[C@@H]2CC[C@H]([C@H](C)CCC(=O)OCCC[C@H]3O[C@@H]4O[C@@]5(C)CC[C@H]6[C@H](C)CC[C@@H]([C@H]3C)[C@@]46OO5)[C@@]12C | 0.192 µM | 7.16 µM | 37.3 | 
5 | COC(=O)CC[C@@H](C)[C@H]1CC[C@H]2[C@@H]3[C@H](OC(C)=O)C[C@@H]4C[C@@H](NC(=O)C[C@H]5O[C@@H]6O[C@@]7(C)CC[C@H]8[C@H](C)CC[C@@H]([C@H]5C)[C@@]68OO7)CC[C@]4(C)[C@H]3C[C@H](OC(C)=O)[C@]12C | 0.049 µM | 0.56 µM | 11.4 | 
6 | COc1cccc2c1C(=O)c1c(O)c3c(c(O)c1C2=O)C[C@@](O)(C(=O)CO)C[C@@H]3O[C@H]1C[C@H](N)[C@H](O)[C@H](C)O1 [DOXORUBICIN] |  |  | 536.67 | 
7 | COC(=O)CC[C@@H](C)[C@H]1CC[C@H]2[C@@H]3[C@H](OC(C)=O)C[C@@H]4C[C@H](OC(=O)CCC(=O)O[C@@H]5O[C@@H]6O[C@@]7(C)CC[C@H]8[C@H](C)CC[C@@H]([C@H]5C)[C@@]68OO7)CC[C@]4(C)[C@H]3C[C@H](OC(C)=O)[C@]12C | 0.035 µM | 0.626 µM | 17.9 | 
8 | COC(=O)CC[C@@H](C)[C@H]1CC[C@H]2[C@@H]3[C@H](OC(C)=O)C[C@@H]4C[C@H](OC(=O)C[C@H]5O[C@@H]6O[C@@]7(C)CC[C@H]8[C@H](C)CC[C@@H]([C@H]5C)[C@@]68OO7)CC[C@]4(C)[C@H]3C[C@H](OC(C)=O)[C@]12C | 0.03 µM | 1.25 µM | 41.8 | 
9 | COC(=O)CC[C@@H](C)[C@H]1CC[C@H]2[C@@H]3[C@H](OC(C)=O)C[C@@H]4C[C@H](NC(=O)CCC(=O)O[C@@H]5O[C@@H]6O[C@@]7(C)CC[C@H]8[C@H](C)CC[C@@H]([C@H]5C)[C@@]68OO7)CC[C@]4(C)[C@H]3C[C@H](OC(C)=O)[C@]12C | 0.036 µM | 0.655 µM | 18.2 | 
10 | COC(=O)CC[C@@H](C)[C@H]1CC[C@H]2[C@@H]3[C@H](OC(C)=O)C[C@@H]4C[C@@H](NC(=O)CCC(=O)O[C@@H]5O[C@@H]6O[C@@]7(C)CC[C@H]8[C@H](C)CC[C@@H]([C@H]5C)[C@@]68OO7)CC[C@]4(C)[C@H]3C[C@H](OC(C)=O)[C@]12C | 0.136 µM | 0.779 µM | 5.7 | 
11 | COC(=O)CC[C@@H](C)[C@H]1CC[C@H]2[C@@H]3[C@H](OC(C)=O)C[C@@H]4C[C@H](NC(=O)C[C@H]5O[C@@H]6O[C@@]7(C)CC[C@H]8[C@H](C)CC[C@@H]([C@H]5C)[C@@]68OO7)CC[C@]4(C)[C@H]3C[C@H](OC(C)=O)[C@]12C | 0.019 µM | 0.345 µM | 18.2 | 
